Assay [1] has as its target T1, Retinoic acid receptor alpha [200-419]/gamma [183-417] (Homo sapiens, UniProt P10276+P13631).
T1 construct: 200-419; 183-417
T1 sequence (P13631 whole entry): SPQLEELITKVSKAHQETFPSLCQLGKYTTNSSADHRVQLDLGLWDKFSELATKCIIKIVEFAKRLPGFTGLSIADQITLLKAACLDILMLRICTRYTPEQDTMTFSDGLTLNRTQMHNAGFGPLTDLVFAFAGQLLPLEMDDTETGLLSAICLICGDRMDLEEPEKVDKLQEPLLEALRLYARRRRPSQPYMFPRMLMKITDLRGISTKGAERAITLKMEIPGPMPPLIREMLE
T1 sequence (P10276 whole entry): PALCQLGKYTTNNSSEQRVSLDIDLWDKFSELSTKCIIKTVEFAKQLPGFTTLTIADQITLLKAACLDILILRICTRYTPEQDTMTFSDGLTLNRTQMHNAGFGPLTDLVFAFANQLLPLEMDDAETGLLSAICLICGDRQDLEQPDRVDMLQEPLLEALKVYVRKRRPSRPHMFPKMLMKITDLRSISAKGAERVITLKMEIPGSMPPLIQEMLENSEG
Kind of assay: Competitive Assay. To be noted: pH 8; 4 °C. As for the experimental part: (§1) Competitive assay were perform with 5nM tritiated all-trans retinoic acid (t-RA; 5nM) with or without 100-fold excess of non-radioactive t-RA (500nM).

Assay [2] deals with T2, Retinoic acid receptor alpha [200-419] (Homo sapiens, UniProt P10276).
T2 construct: 200-419
T2 sequence (P10276 whole entry): T1 sequence (P10276 whole entry)
Nature of the assay: Competitive Assay. To be noted: pH 8; 4 °C. The method, then:
as §1

Structures are written as SMILES.

Usually Ki stands for the equilibrium dissociation constant of an inhibitor or competing ligand from its target.

On to `CC1(C)CC=C(c2cnc3ccccc3c2)c2cc(C(=O)Nc3ccc(C(=O)O)cc3)ccc21` [BMS614], for which the Ki is 1 nM in assay [1] and 2.5 nM in assay [2].

For the compound `CC1(C)C(=O)C(C)(C)c2cc(C(=O)Nc3ccc(C(=O)O)cc3)ccc21` [BMS753], the Ki turned out to be 1 nM in assay [1] and 2 nM in assay [2].

The record behind these values is BindingDB's records for doi:10.1016/S1074-5521(99)80084-2 (Institute of Genetics and Molecular and Cellular Biology …, 1999).
